According to the supplement of paper PMC11061612:

How the values were obtained:
[1] = tested on: HCC1428 (Breast Carcinoma); experiment: combination Emax (second highest fraction inhibited in the dose matrix, 72 h); higher = more inhibition; extreme values may be limits of the assay
In short: (§1)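 Cell lines in DMEM/F12 or RPMI with 10% FBS were plated in 1536-well plates, held 24 hours at 37°C, 5% CO2, then given two-drug dose matrices for 72 hours (DMSO typically 0.2%). Viability was read by CellTiter-Glo 2.0 luminescence and scaled as inhibition from 0 (vehicle wells) to 1 (blank wells). Combination Emax is the second-highest inhibition in the matrix; Bliss excess is observed combination effect minus expected EA + EB − EA·EB, EA and EB being single-agent effects.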

NB13 (Neuroblastoma) [2] = experiment: as above
In short: as §1

[3] = tested on: DU-4475 (Breast Carcinoma); experiment: as above
In short: as §1

[4] = tested on: JVM-2 (B-Cell Non-Hodgkin's Lymphoma); experiment: as above
In short: as §1

[5] = tested on: DMS-53 (Small Cell Lung Carcinoma); experiment: as above
In short: as §1

NB13 (Neuroblastoma) [6] = experiment: Bliss excess, mean over the matrix (fraction); higher = more synergy
In short: as §1

[7] = tested on: CA46 (Burkitt's Lymphoma); experiment: as above
In short: as §1

[8] = tested on: SW620 (Colorectal Carcinoma); experiment: as above
In short: as §1

PEO1 (Ovarian Carcinoma) = experiment: as above
In short: as §1

5637 (Bladder Carcinoma) = experiment: as above
In short: as §1

[9] = tested on: ESO26 (Esophageal Adenocarcinoma); experiment: as above
In short: as §1

[10] = tested on: Jurkat (T-Lymphoblastic Leukemia); experiment: as above
In short: as §1

[11] = tested on: NCI-H1651 (Lung Adenocarcinoma); experiment: as above
In short: as §1

EB2 (Burkitt's Lymphoma) = experiment: as above
In short: as §1

[12] = tested on: SK-HEP-1 (Hepatocellular Carcinoma); experiment: as above
In short: as §1

[13] = tested on: NCI-H441 (Lung Adenocarcinoma); experiment: as above
In short: as §1

[14] = tested on: KYSE-140 (Esophageal Squamous Cell Carcinoma); experiment: as above
In short: as §1

[15] = tested on: JHH-2 (Hepatocellular Carcinoma); experiment: as above
In short: as §1

[16] = tested on: UACC-812 (Breast Carcinoma); experiment: as above
In short: as §1

A101D (Melanoma) = experiment: as above
In short: as §1
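Throughout, for Bliss excess, mean over the matrix: after 72 h of two-drug dosing.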

Structure (SMILES) | combination Emax [1] | combination Emax (NB13 (Neuroblastoma) [2]) | combination Emax [3] | combination Emax [4] | combination Emax [5] | Bliss excess (NB13 (Neuroblastoma) [6]) | Bliss excess [7] | Bliss excess [8] | Bliss excess (PEO1 (Ovarian Carcinoma)) | Bliss excess (5637 (Bladder Carcinoma)) | Bliss excess [9] | Bliss excess [10] | Bliss excess [11] | Bliss excess (EB2 (Burkitt's Lymphoma)) | Bliss excess [12] | Bliss excess [13] | Bliss excess [14] | Bliss excess [15] | Bliss excess [16] | Bliss excess (A101D (Melanoma))
COc1nnc2ccc(N3CCC(c4ccc(OCCN5CCN(C)C(=O)[C@H]5C)cc4)CC3)nn12 [AZD5153] + Cc1c2c(nn1C)CSCc1cc(n(C)n1)CSc1cc(c3ccccc3c1)OCCCc1c(C(=O)O)n(C)c3c-2c(Cl)ccc13 [AZD5991] (first compound max 1 µM, 7x7, partner max 1 µM) | 0.984 | 0.907 | 0.974 | 0.711 | 0.612 | 0.0066 | -0.0502 | -0.0457 | -0.0209 | -0.0555 | -0.0071 | 0.0006 | -0.0273 | -0.0614 | -0.085 | -0.0179 | -0.124 | -0.119 | 0.0365 | 0.0406
COc1nnc2ccc(N3CCC(c4ccc(OCCN5CCN(C)C(=O)[C@H]5C)cc4)CC3)nn12 [AZD5153] + Cn1cnc2c(F)c(Nc3ccc(Br)cc3Cl)c(C(=O)NOCCO)cc21 [Selumetinib] (first compound max 1 µM, 7x7, partner max 10 µM) | 0.728 | 0.565 | 1 | 0.702 | 0.426 | -0.0616 | -0.0282 | -0.0083 | -0.0509 | 0.0132 | -0.0727 | -0.0326 | -0.0319 | -0.0216 | -0.0764 | -0.0338 | -0.028 | 0.0024 | 0.0089 | -0.081
Cc1c2c(nn1C)CSCc1cc(n(C)n1)CSc1cc(c3ccccc3c1)OCCCc1c(C(=O)O)n(C)c3c-2c(Cl)ccc13 [AZD5991] + C1CN(CCC1(C(=O)N[C@@H](CCO)C2=CC=C(C=C2)Cl)N)C3=NC=NC4=C3C=CN4 [Capivasertib] (first compound max 1 µM, 7x7, partner max 3 µM) | 0.977 | 0.349 | 0.24 | 0.801 | 0.442 | 0.0719 | 0.0205 | -0.0325 | -0.0428 | -0.004 | -0.0014 | 0.0115 | 0.0279 | -0.0375 | 0.0194 | -0.0023 | 0.0196 | 0.0621 | 0.0196 | 0.0252
Cc1c2c(nn1C)CSCc1cc(n(C)n1)CSc1cc(c3ccccc3c1)OCCCc1c(C(=O)O)n(C)c3c-2c(Cl)ccc13 [AZD5991] + C=CCn1c(=O)c2cnc(Nc3ccc(N4CCN(C)CC4)cc3)nc2n1-c1cccc(C(C)(C)O)n1 [AZD1775] (first compound max 1 µM, partner max 1 µM) | 0.97 | 0.902 | 0.977 | 0.966 | 0.684 | -0.0346 | -0.0627 | -0.0272 | 0.0146 | -0.0352 | 0.0072 | -0.0066 | -0.11 | -0.0969 | -0.0366 | 0.0171 | 0.0145 | -0.063 | -0.0343 | 0.0106
Cc1c2c(nn1C)CSCc1cc(n(C)n1)CSc1cc(c3ccccc3c1)OCCCc1c(C(=O)O)n(C)c3c-2c(Cl)ccc13 [AZD5991] + CC1(C)CCC(CN2CCN(c3ccc(C(=O)NS(=O)(=O)c4ccc(NCC5CCOCC5)c([N+](=O)[O-])c4)c(Oc4cnc5[nH]ccc5c4)c3)CC2)=C(c2ccc(Cl)cc2)C1 [Venetoclax] (first compound max 1 µM, 7x7, partner max 1 µM) | 0.987 | 0.546 | 0.447 | 0.639 | 0.828 | 0.0393 | -0.02 | -0.037 | -0.0145 | -0.0474 | -0.0209 | 0.0116 | -0.0327 | 0.0144 | -0.0098 | -0.0189 | 0.0154 | -0.0156 | 0.0196 | 0.0076
Cc1c2c(nn1C)CSCc1cc(n(C)n1)CSc1cc(c3ccccc3c1)OCCCc1c(C(=O)O)n(C)c3c-2c(Cl)ccc13 [AZD5991] + CN(C)CCCOc1ccc(-c2ccc3ncc4c(c3c2)n(C2CCOCC2)c(=O)n4C)cn1 [AZD0156] (first compound max 1 µM, 7x7, partner max 1 µM) | 0.961 | 0.282 | 0.244 | 0.753 | 0.716 | 0.0007 | -0.0705 | 0.0345 | -0.0155 | -0.0014 | 0.008 | -0.0219 | 0.0042 | -0.0423 | 0.0098 | 0.0031 | -0.0063 | 0.0012 | 0.0465 | -0.0801
Cc1c2c(nn1C)CSCc1cc(n(C)n1)CSc1cc(c3ccccc3c1)OCCCc1c(C(=O)O)n(C)c3c-2c(Cl)ccc13 [AZD5991] + C[C@@H]1COCCN1C2=NC(=NC(=C2)C3(CC3)[S@](=N)(=O)C)C4=C5C=CNC5=NC=C4 [AZD6738] (first compound max 1 µM, 7x7, partner max 10 µM) | 0.974 | 0.952 | 0.978 | 0.912 | 0.616 | 0.012 | -0.0252 | 0.0191 | 0.0062 | 0.0305 | 0.0276 | -0.0178 | 0.0192 | -0.0097 | 0.0225 | 0.0073 | 0.0119 | 0.0115 | 0.0094 | 0.0342
Cc1c2c(nn1C)CSCc1cc(n(C)n1)CSc1cc(c3ccccc3c1)OCCCc1c(C(=O)O)n(C)c3c-2c(Cl)ccc13 [AZD5991] + C[C@@H](Nc1cc(F)cc(F)c1)c1cc(C(=O)N(C)C)cc2c(=O)cc(N3CCOCC3)oc12 [AZD8186] (first compound max 1 µM, 7x7, partner max 3 µM) | 0.964 | 0.331 | 0.117 | 0.712 | 0.398 | 0.0039 | -0.0611 | -0.0298 | -0.008 | -0.036 | -0.0171 | -0.0077 | -0.0293 | 0.0282 | 0.0175 | -0.0189 | -0.0439 | -0.0261 | 0.0043 | -0.0318
Cc1c2c(nn1C)CSCc1cc(n(C)n1)CSc1cc(c3ccccc3c1)OCCCc1c(C(=O)O)n(C)c3c-2c(Cl)ccc13 [AZD5991] + Cc1cc2ncnn2cc1Nc1ncc2c(n1)n(C1CCOCC1)c(=O)n2C [AZD7648] (first compound max 1 µM, 7x7, partner max 10 µM) | 0.977 | 0.245 | 0.297 | 0.68 | 0.554 | 0.0153 | 0.0187 | -0.0421 | -0.0279 | -0.0232 | -0.0372 | -0.0234 | 0.0096 | 0.0285 | -0.0463 | -0.0529 | -0.0345 | -0.0272 | -0.0259 | -0.0897
Cc1c2c(nn1C)CSCc1cc(n(C)n1)CSc1cc(c3ccccc3c1)OCCCc1c(C(=O)O)n(C)c3c-2c(Cl)ccc13 [AZD5991] + Cn1cnc2c(F)c(Nc3ccc(Br)cc3Cl)c(C(=O)NOCCO)cc21 [Selumetinib] (first compound max 1 µM, 7x7, partner max 3 µM) | 0.977 | 0.263 | 1 | 0.646 | 0.618 | 0.045 | -0.0195 | 0.0005 | 0.0027 | 0.0174 | 0.0199 | 0.0294 | -0.0165 | -0.0046 | -0.0484 | -0.0311 | -0.015 | -0.0154 | 0.0137 | 0.0482
C[C@@H]1COCCN1c1cc(C2([S@](C)(=N)=O)CC2)nc(-c2ccnc3[nH]ccc23)n1 [AZD6738] + O=C(c1cc(Cc2n[nH]c(=O)c3ccccc23)ccc1F)N1CCN(C(=O)C2CC2)CC1 [Olaparib] (first compound max 10 µM, 7x7, partner max 10 µM) | 0.261 | 0.947 | 0.975 | 0.836 | 0.148 | 0.0511 | 0.0138 | 0.0218 | 0.0069 | -0.0011 | -0.0081 | 0.0592 | 0.0418 | -0.0553 | 0.0248 | 0.0124 | -0.0971 | -0.0152 | -0.0422 | -0.0004
COc1cccc2c1C(=O)c1c(O)c3c(c(O)c1C2=O)C[C@@](O)(C(=O)CO)C[C@@H]3O[C@H]1C[C@H](N)[C@H](O)[C@H](C)O1 [Doxorubicin] + Cc1cc2ncnn2cc1Nc1ncc2c(n1)n(C1CCOCC1)c(=O)n2C [AZD7648] (first compound max 1 µM, 7x7, partner max 10 µM) | 0.168 | 0.923 | 1 | 0.983 | 0.455 | 0.0808 | 0.0813 | 0.0335 | -0.0214 | 0.0902 | 0.032 | 0.181 | 0.024 | 0.0972 | 0.0292 | 0.0125 | 0.05 | 0.0229 | -0.023 | 0.0232
COc1cccc(OCCCN)c1-c1cc(Nc2cnc(C#N)cn2)n[nH]1 [Prexasertib] + C=CCn1c(=O)c2cnc(Nc3ccc(N4CCN(C)CC4)cc3)nc2n1-c1cccc(C(C)(C)O)n1 [AZD1775] (first compound max 1 µM, partner max 1 µM) | 0.688 | 0.935 | 0.997 | 0.942 | 0.473 | -0.0347 | 0.0924 | 0.0478 | 0.0825 | 0.0167 | 0.0278 | 0.0561 | 0.0428 | 0.0249 | 0.0775 | -0.0383 | 0.0329 | 0.0869 | 0.0705 | 0.0932
COc1cccc(OCCCN)c1-c1cc(Nc2cnc(C#N)cn2)n[nH]1 [Prexasertib] + CCc1c2c(nc3ccc(O)cc13)-c1cc3c(c(=O)n1C2)COC(=O)[C@]3(O)CC [SN-38] (first compound max 1 µM, 7x7, partner max 0.3 µM) | 0.797 | 0.962 | 1 | 0.985 | 0.878 | 0.0263 | 0.0035 | 0.0603 | -0.0015 | 0.0891 | 0.0483 | -0.005 | -0.0551 | -0.0439 | -0.0339 | -0.0772 | -0.0076 | 0.0002 | -0.0633 | -0.0308
